{
  "source": "patent US20090093054A1",
  "about": "“CRYOPRESERVATION OF HUMAN BLASTOCYST-DERIVED STEM CELLS BY USE OF A CLOSED STRAW VITRIFICATION METHOD” (Cellartis AB, priority 2003, published 2009)",
  "key": {"Human BS cell line SA121": {"tested_on": "Human BS cell line SA121", "experiment": "Thawing recovery after closed straw vitrification and devitrification, cell line SA121", "type": "cell-based", "settings": "for Thawing recovery, trehalose compared with sucrose: same molar concentration in vitrification and devitrification medium; for Thawing recovery: viable thawed colonies / hBS cell pieces originally vitrified, per individual closed straw, 48 h after seeding on MEF, sugar in vitrification and devitrification medium, same molar concentration for both; for Thawing recovery (SA121): viable colonies / pieces vitrified per closed straw, 48 h after seeding", "procedure": "Two solutions A and B are prepared (Solution A: Sterile filtered 10% Ethylene glycol, 10% DMSO in Cryo-PBS; Solution B: Sterile filtered 0.3M Trehalose, 20% Ethylene glycol, 10% DMSO in Cryo-PBS) Selected colonies of human blastocyst-derived stem cells, which display proper morphology, are cut in the same way as when the cells are cut for regular passage using a stem cell cutting tool (Swemed Labs International, BilIdal, Sweden). The cell pieces should be about 0.1-0.4 mm×0.1-0.4 mm in size. The cell pieces are incubated first in 500 μl preheated (37° C.) Solution A for 1 min and then transferred to 25 μl Solution B and incubated for 30 s and then transferred again to a fresh drop of Solution B and incubated for 30 s. The volume is about 40-50 μl. About 10 cell pieces are aspirated into a straw prepared for vitrification and the straw is then closed with a bond. The straw is plunged into liquid nitrogen.\nTwo solutions C and D are prepared (Solution C: Sterile filtered 0.2M Trehalose in Cryo-PBS.; Solution D: Sterile filtered 0.1 M Trehalose in Cryo-PBS). Solutions C and D and hBS-medium are preheated at 37° C. A closed straw containing vitrified hBS cells (about 10 cell pieces) is removed from the liquid nitrogen tank. The straw is keep at room temperature for 10 s and then quickly thawed in a 40° C. water bath (within seconds). The straw is cut open in the plugged end using an autoclaved pair of scissors and the content pushed out from the straw into solution C using a syringe. The hBS cells are incubated for 1 min in 500 μl solution C and the transferred to 500 μl solution D and incubated for 5 min. Under a stero-microscope the hBS cell pieces are quickly rinsed in hBS medium and then seeded in a culture dish on top of mouse embryonic feeder cells in hBS medium. The cells are then cultured (incubated at 37° C.) and the number of established new colonies are counted and passaged in order to verify the viability of the hBS cells after vitrification. The recovery of viable cells following this vitrifying and thawing procedures is normally in the range of 70-100%.\nHuman BS cells (cell line SA121) were vitrified and thawed either following the procedure described in Example 1 & 2 or following the procedure described in Example 1 and 2 with the exception that trehalose was used in the vitrification and devitrification medium was replaced by sucrose in the same molar concentration as used for trehalose. Forty-eight hours after seeding in culture dishes on top of mouse embryonic feeder cells the hBS cell colonies were evaluated and counted. The thawing recovery was calculated as the ratio between the number of viable thawed colonies (displaying appropriate hBS cell morphology) and the number of hBS cell pieces originally vitrified. […]\nHuman BS cells (cell line SA121) were vitrified and thawed following the procedure described in Example 1 & 2 with the exception that trehalose was used in two different concentrations (0.3M and 0.5M) in the second vitrification solution (solution B). When 0.3 M trehalose was used in solution B, solution C contained 0.2 M trehalose and solution D contained 0.1 M trehalose. When 0.5 M trehalose was used in solution B, solution C contained 0.4 M trehalose and solution D contained 0.2 M trehalose. Forty-eight hours after seeding in culture dishes on top of mouse embryonic feeder cells the hBS cell colonies were evaluated and counted. The thawing recovery was calculated as the ratio between the number of viable thawed colonies (displaying appropriate hBS cell morphology) and the number of hBS cell pieces originally vitrified. Two separate experiments using two different human BS cell lines were performed. Three straws were prepared and evaluated per cell line and the results are presented below for each individual straw."}, "Human BS cell line SA002": {"tested_on": "Human BS cell line SA002", "experiment": "Thawing recovery after closed straw vitrification and devitrification, cell line SA002", "type": "cell-based", "settings": "viable colonies / pieces vitrified per closed straw, 48 h after seeding"}, "[1]": {"settings": "0.3M trehalose in solution B (C 0.2 M, D 0.1 M)"}, "[2]": {"settings": "0.5M trehalose in solution B (C 0.4 M, D 0.2 M)"}},
  "note": "“And” between values parts separate entries of the source, which are not always exact repeats. Identical values can stand only once.",
  "data": [
    {"smiles": "OC[C@H]1O[C@@](CO)(O[C@H]2O[C@H](CO)[C@@H](O)[C@H](O)[C@H]2O)[C@@H](O)[C@@H]1O", "note": "[Sucrose]", "values": [
      {"measurement": "Thawing recovery, trehalose compared with sucrose", "setting": "Human BS cell line SA121; result in words", "result": "no significant difference"},
      {"measurement": "Thawing recovery", "setting": "Human BS cell line SA121", "result": "8/10 and 5/10 and 9/10"}
    ]},
    {"smiles": "OC[C@H]1O[C@H](O[C@H]2O[C@H](CO)[C@@H](O)[C@H](O)[C@H]2O)[C@H](O)[C@@H](O)[C@@H]1O", "note": "[Trehalose]", "values": [
      {"measurement": "Thawing recovery (SA002)", "setting": "Human BS cell line SA002; [1]", "result": "5/8 and 6/8 and 7/7"},
      {"measurement": "Thawing recovery (SA002)", "setting": "Human BS cell line SA002; [2]", "result": "7/8 and 8/8 and 5/7"},
      {"measurement": "Thawing recovery (SA121)", "setting": "Human BS cell line SA121; [1]", "result": "6/10 and 5/10"},
      {"measurement": "Thawing recovery (SA121)", "setting": "Human BS cell line SA121; [2]", "result": "8/10 and 9/10 and 8/8"},
      {"measurement": "Thawing recovery, 0.5 M compared with 0.3 M trehalose in solution B", "setting": "Human BS cell line SA121; cell lines SA121 and SA002, result in words", "result": "seems to work better"},
      {"measurement": "Thawing recovery, trehalose compared with sucrose", "setting": "Human BS cell line SA121; result in words", "result": "no significant difference"},
      {"measurement": "Thawing recovery", "setting": "Human BS cell line SA121", "result": "5/9 and 8/10 and 6/10"}
    ]}
  ]
}
